From the supplement of paper PMC10307832

compound: COc1cc([C@@H]2c3cc4c(cc3[C@@H](O[C@@H]3O[C@@H]5CO[C@@H](C)O[C@H]5[C@H](O)[C@H]3O)[C@H]3COC(=O)[C@H]23)OCO4)cc(OC)c1O [Etoposide] + CC(=O)c1c(C)c2cnc(Nc3ccc(N4CCNCC4)cn3)nc2n(C2CCCC2)c1=O [Palbociclib] (partner 0.5 µM); experiment: relative viability (nuclei count vs DMSO), 5 days (fraction); higher = more cells survive; conditions: first compound 0.01 µM
Method in brief: (§1)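 Each reported value is a median over duplicate plates. It expresses relative viability: treated-well nuclei count divided by vehicle-well nuclei count. Lung cancer cell lines in 1536-well plates were dosed by pin tool a day after seeding, alone with one drug or with a fixed anchor-drug dose plus five library-drug doses (not always all listed) in √10 steps, and nuclei were counted after 5 days.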

Cell Line	relative viability
NCI-H522	0.926
NCI-H838	0.172
NCI-H1650	0.376
NCI-H2087	0.211
PC-14	0.447
LCLC-103H	0.526
NCI-H2228	0.705
EMC-BAC-2	0.495
NCI-H2085	0.461
HCC-366	0.341
NCI-H1666	0.618
NCI-H647	0.423
LK-2	0.618
NCI-H2126	0.32
NCI-H2342	0.463
SK-MES-1	0.338
H3255	0.331
COR-L23	0.23
COR-L 105	0.423
LOU-NH91	0.556

Cell Line	relative viability
ChaGo-K-1	0.929
NCI-H2170	0.382
NCI-H3122	0.218
HOP-62	0.408
HCC-44	0.99
SW 900	0.585
LU99A	0.392
BEN	0.491
HARA	0.242
HCC-78	0.403
NCI-H441	0.194
LCLC-97TM1	0.243
NCI-H2009	0.203
A-427	0.51
NCI-H460	0.131
NCI-H727	0.67
NCI-H1734	0.358
NCI-H520	0.256
NCI-H2405	0.536
SW 1573	0.363

Cell Line	relative viability
NCI-H1395	0.625
201T	0.366
NCI-H1915	0.471
HCC-827	0.418
LXF-289	0.618
NCI-H2347	0.314
NCI-H650	0.29
CAL-12T	0.346
NCI-H1651	0.512
EPLC-272H	0.359
NCI-H23	0.504
NCI-H1792	0.579
NCI-H1355	0.423
NCI-H322M	0.526
NCI-H1437	0.278
NCI-H1755	0.436
NCI-H2023	0.312
HCC-15	0.623

same assay, conditions: first compound 0.03162 µM

Cell Line	relative viability
NCI-H522	0.988
NCI-H838	0.238
NCI-H1650	0.36
NCI-H1993	0.773
NCI-H2087	0.19
PC-14	0.594
LCLC-103H	0.553
NCI-H2228	0.765
EMC-BAC-2	0.49
NCI-H2085	0.477
HCC-366	0.375
NCI-H1666	0.639
NCI-H647	0.458
LK-2	0.588
NCI-H2126	0.39
NCI-H2342	0.542
SK-MES-1	0.31
H3255	0.334
COR-L23	0.27
COR-L 105	0.41
LOU-NH91	0.545

Cell Line	relative viability
ChaGo-K-1	0.952
NCI-H2170	0.427
NCI-H3122	0.219
HOP-62	0.478
HCC-44	0.94
SW 900	0.503
LU99A	0.427
BEN	0.487
HARA	0.335
NCI-H1648	0.289
HCC-78	0.522
NCI-H441	0.251
LCLC-97TM1	0.248
NCI-H2009	0.213
A-427	0.479
NCI-H460	0.11
NCI-H727	0.675
NCI-H1734	0.374
NCI-H520	0.245
NCI-H2405	0.549
SW 1573	0.349

Cell Line	relative viability
NCI-H1395	0.595
201T	0.35
NCI-H1915	0.569
HCC-827	0.475
LXF-289	0.606
NCI-H2347	0.397
NCI-H650	0.299
CAL-12T	0.505
NCI-H1651	0.515
EPLC-272H	0.284
NCI-H23	0.515
NCI-H1792	0.636
NCI-H1355	0.473
NCI-H322M	0.481
NCI-H1437	0.352
NCI-H1755	0.397
NCI-H2023	0.201
HCC-15	0.695
NCI-H1793	0.321

same assay, conditions: first compound 0.1 µM

Cell Line	relative viability
NCI-H522	0.849
NCI-H838	0.169
NCI-H1650	0.26
NCI-H1993	0.481
NCI-H2087	0.214
PC-14	0.652
LCLC-103H	0.509
NCI-H2228	0.435
EMC-BAC-2	0.399
NCI-H2085	0.513
HCC-366	0.257
NCI-H1666	0.662
NCI-H647	0.321
LK-2	0.451
NCI-H2126	0.316
NCI-H2342	0.423
SK-MES-1	0.315
H3255	0.351
COR-L23	0.27
COR-L 105	0.383

Cell Line	relative viability
LOU-NH91	0.516
ChaGo-K-1	0.682
NCI-H3122	0.164
HOP-62	0.464
HCC-44	1.02
SW 900	0.593
LU99A	0.266
HARA	0.245
NCI-H1648	0.211
HCC-78	0.534
NCI-H441	0.177
LCLC-97TM1	0.169
NCI-H2009	0.145
A-427	0.486
NCI-H460	0.111
NCI-H727	0.581
NCI-H1734	0.312
NCI-H520	0.193
NCI-H2405	0.355
SW 1573	0.288

Cell Line	relative viability
NCI-H1395	0.555
201T	0.325
NCI-H1915	0.506
HCC-827	0.341
LXF-289	0.621
NCI-H2347	0.375
NCI-H650	0.26
CAL-12T	0.299
NCI-H1651	0.414
EPLC-272H	0.326
NCI-H23	0.485
NCI-H1792	0.598
NCI-H1355	0.275
NCI-H322M	0.436
NCI-H1437	0.279
NCI-H1755	0.454
NCI-H2023	0.351
HCC-15	0.828
NCI-H1793	0.2

same assay, conditions: first compound 0.3162 µM

Cell Line	relative viability
NCI-H522	1.16
NCI-H838	0.226
NCI-H1650	0.199
NCI-H1993	0.659
NCI-H2087	0.215
PC-14	0.289
LCLC-103H	0.457
NCI-H2228	0.32
EMC-BAC-2	0.321
NCI-H2085	0.409
HCC-366	0.071
NCI-H1666	0.592
NCI-H647	0.258
LK-2	0.412
NCI-H2126	0.368
NCI-H2342	0.425
SK-MES-1	0.262
H3255	0.315
COR-L23	0.261
COR-L 105	0.394
LOU-NH91	0.468

Cell Line	relative viability
ChaGo-K-1	0.289
NCI-H2170	0.36
NCI-H3122	0.182
HOP-62	0.356
HCC-44	0.947
SW 900	0.492
LU99A	0.226
BEN	0.454
HARA	0.269
NCI-H1648	0.297
HCC-78	0.402
NCI-H441	0.191
LCLC-97TM1	0.165
NCI-H2009	0.25
A-427	0.378
NCI-H460	0.0408
NCI-H727	0.689
NCI-H1734	0.306
NCI-H520	0.254
NCI-H2405	0.477
SW 1573	0.16

Cell Line	relative viability
NCI-H1395	0.638
201T	0.349
NCI-H1915	0.459
HCC-827	0.161
LXF-289	0.487
NCI-H2347	0.381
NCI-H650	0.237
CAL-12T	0.306
NCI-H1651	0.359
EPLC-272H	0.339
NCI-H23	0.334
NCI-H1792	0.606
NCI-H1355	0.355
NCI-H322M	0.467
NCI-H1437	0.293
NCI-H1755	0.429
NCI-H2023	0.201
HCC-15	0.468
NCI-H1793	0.305

same assay, conditions: first compound 1 µM

Cell Line	relative viability
NCI-H522	0.797
NCI-H838	0.244
NCI-H1650	0.168
NCI-H1993	0.482
NCI-H2087	0.193
PC-14	0.125
LCLC-103H	0.407
NCI-H2228	0.145
EMC-BAC-2	0.254
NCI-H2085	0.323
HCC-366	0.0568
NCI-H1666	0.506
NCI-H647	0.216
LK-2	0.275
NCI-H2126	0.34
NCI-H2342	0.331
SK-MES-1	0.239
H3255	0.281
COR-L23	0.146
COR-L 105	0.366
LOU-NH91	0.428

Cell Line	relative viability
ChaGo-K-1	0.222
NCI-H2170	0.319
NCI-H3122	0.165
HOP-62	0.273
HCC-44	0.701
SW 900	0.263
LU99A	0.166
BEN	0.539
HARA	0.203
NCI-H1648	0.265
HCC-78	0.378
NCI-H441	0.128
LCLC-97TM1	0.121
NCI-H2009	0.148
A-427	0.282
NCI-H460	0.0313
NCI-H727	0.767
NCI-H1734	0.242
NCI-H520	0.227
NCI-H2405	0.328
SW 1573	0.109

Cell Line	relative viability
NCI-H1395	0.545
201T	0.385
NCI-H1915	0.375
HCC-827	0.156
LXF-289	0.331
NCI-H2347	0.346
NCI-H650	0.161
CAL-12T	0.285
NCI-H1651	0.178
EPLC-272H	0.304
NCI-H23	0.236
NCI-H1792	0.461
NCI-H1355	0.281
NCI-H322M	0.445
NCI-H1437	0.269
NCI-H1755	0.456
NCI-H2023	0.173
HCC-15	0.244
NCI-H1793	0.29

compound: COc1cc([C@@H]2c3cc4c(cc3[C@@H](O[C@@H]3O[C@@H]5CO[C@@H](C)O[C@H]5[C@H](O)[C@H]3O)[C@H]3COC(=O)[C@H]23)OCO4)cc(OC)c1O [Etoposide] + O=C(c1cc(Cc2n[nH]c(=O)c3ccccc23)ccc1F)N1CCN(C(=O)C2CC2)CC1 [Olaparib] (partner 8 µM); experiment: as above; conditions: first compound 0.01 µM
Method in brief: as §1

Cell Line	relative viability
NCI-H522	0.593
NCI-H838	0.757
NCI-H1650	0.797
EBC-1	0.641
NCI-H1703	0.366
NCI-H2087	0.579
PC-14	0.239
LCLC-103H	0.786
NCI-H596	0.64
NCI-H2228	0.586
EMC-BAC-2	0.443
NCI-H2085	0.755
Calu-6	0.585
HCC-366	0.292
NCI-H1666	0.702
NCI-H647	0.459
LK-2	0.618
